Results reported in patent publication US20250171431A1, “HETEROCYCLIC INHIBITORS OF IGF-1R FOR TREATMENT OF DISEASE” (HORIZON THERAPEUTICS IRELAND DAC, priority 2023, published 2025).

target: IGF-1R (Homo sapiens (Human), UniProt P08069); test: Example B-1: IGF-1R Assay (PC3 cells, IGF1 stimulation, AlphaLISA); assay type: cell-based; conditions: 200 ng/mL IGF1 stimulation, read-out: Biological Activity against IGF-1R IC50
Method in brief: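 Readout is AlphaLISA signal from lysed PC3 cells, expressed as % inhibition versus vehicle and EC80 controls and banded by IC50. Before lysis, the cells were starved of serum for 2 h, exposed to 3× serially diluted compound for 2 h, and stimulated for 30 min with 200 ng/mL IGF1 (final).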

IGF-1R, sequence (P08069 31-1367): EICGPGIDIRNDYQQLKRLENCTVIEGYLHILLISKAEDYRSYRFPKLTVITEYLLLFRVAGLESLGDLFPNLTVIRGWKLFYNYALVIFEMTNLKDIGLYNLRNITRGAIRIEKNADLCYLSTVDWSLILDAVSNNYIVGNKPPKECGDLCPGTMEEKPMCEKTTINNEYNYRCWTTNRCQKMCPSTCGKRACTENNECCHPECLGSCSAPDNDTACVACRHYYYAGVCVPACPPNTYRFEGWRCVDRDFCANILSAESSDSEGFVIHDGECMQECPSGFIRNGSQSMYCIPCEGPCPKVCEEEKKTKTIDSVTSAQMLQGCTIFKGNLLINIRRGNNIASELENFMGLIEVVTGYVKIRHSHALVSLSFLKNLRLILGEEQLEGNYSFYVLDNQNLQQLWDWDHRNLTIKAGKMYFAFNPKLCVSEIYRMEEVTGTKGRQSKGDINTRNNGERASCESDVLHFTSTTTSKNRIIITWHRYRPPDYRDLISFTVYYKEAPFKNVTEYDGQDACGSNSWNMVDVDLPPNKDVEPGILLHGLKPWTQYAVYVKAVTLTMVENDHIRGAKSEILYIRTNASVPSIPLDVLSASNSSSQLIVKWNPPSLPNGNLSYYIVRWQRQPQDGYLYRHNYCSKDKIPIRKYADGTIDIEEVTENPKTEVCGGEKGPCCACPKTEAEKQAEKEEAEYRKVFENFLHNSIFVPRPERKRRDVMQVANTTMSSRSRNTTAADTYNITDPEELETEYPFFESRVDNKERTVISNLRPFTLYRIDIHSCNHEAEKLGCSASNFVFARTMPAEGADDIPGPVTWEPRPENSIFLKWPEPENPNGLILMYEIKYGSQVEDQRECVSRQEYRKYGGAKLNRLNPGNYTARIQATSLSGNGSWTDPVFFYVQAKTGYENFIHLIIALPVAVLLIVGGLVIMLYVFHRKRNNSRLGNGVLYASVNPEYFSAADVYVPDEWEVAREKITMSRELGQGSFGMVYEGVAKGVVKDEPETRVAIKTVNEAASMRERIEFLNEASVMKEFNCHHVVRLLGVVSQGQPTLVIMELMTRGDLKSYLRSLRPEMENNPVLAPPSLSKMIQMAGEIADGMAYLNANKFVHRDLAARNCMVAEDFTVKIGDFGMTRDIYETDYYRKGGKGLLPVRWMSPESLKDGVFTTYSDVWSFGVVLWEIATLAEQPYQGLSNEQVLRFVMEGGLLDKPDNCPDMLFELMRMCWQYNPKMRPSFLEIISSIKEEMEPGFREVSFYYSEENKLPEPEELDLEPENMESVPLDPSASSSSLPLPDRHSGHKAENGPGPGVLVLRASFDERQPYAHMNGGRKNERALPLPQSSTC

Q: How did the IC50 turn out when `COc1cc(Nc2nccc(Nc3cc4cccc(F)c4[nH]c3=O)n2)cnc1N1CCNC(C(F)F)C1` (stereo not shown) [Compound 233, 3-(2-{6-[3-(difluoromethyl)-1-piperazinyl]-5-methoxy-3-pyridylamino}-4-pyrimidinylamino)-8-fluoro-1,2-dihydro-2-quinolinone] was run?
A: The IC50 was at most 500 nM.

Q: How did the IC50 turn out when `COc1cc(Nc2nccc(Nc3cc4cccc(F)c4[nH]c3=O)n2)cnc1N1CC2(COC2)C1` [Compound 234, 8-fluoro-3-(2-{5-methoxy-6-(2-oxa-6-aza-6-spiro[3.3]heptyl)-3-pyridylamino}-4-pyrimidinylamino)-1,2-dihydro-2-quinolinone] was run?
A: The IC50 was at most 500 nM.

Q: How did the IC50 turn out when `COc1cc(Nc2nccc(Nc3cc4cccc(F)c4[nH]c3=O)n2)cnc1N1CCNCC1` [Compound 235, 8-fluoro-3-{2-[5-methoxy-6-(1-piperazinyl)-3-pyridylamino]-4-pyrimidinylamino}-1,2-dihydro-2-quinolinone] was run?
A: The IC50 was at most 500 nM.

Q: Which IC50 does the source give for `COc1cc(Nc2nccc(Nc3cc4cccc(F)c4[nH]c3=O)n2)cnc1N1CCN(CC#N)CC1` [Compound 236, (4-{5-[4-(8-fluoro-2-oxo-1,2-dihydro-3-quinolylamino)-2-pyrimidinylamino]-3-methoxy-2-pyridyl}-1-piperazinyl)acetonitrile] here?
A: Its IC50 is at most 500 nM.

Q: With `COc1cc(Nc2nccc(Nc3cc4cccc(F)c4[nH]c3=O)n2)cnc1N1CCN(C2COC2)CC1` [Compound 237, 8-fluoro-3-(2-{5-methoxy-6-[4-(3-oxetanyl)-1-piperazinyl]-3-pyridylamino}-4-pyrimidinylamino)-1,2-dihydro-2-quinolinone] as the molecule, how does the IC50 read?
A: Its IC50 is at most 500 nM.

Q: Which IC50 does the source give for `COc1cc(Nc2nccc(Nc3cc4cccc(F)c4[nH]c3=O)n2)cnc1N1CCNC(C(C)(C)O)C1` (stereo not shown) [Compound 238, 8-fluoro-3-(2-{6-[3-(1-hydroxy-1-methylethyl)-1-piperazinyl]-5-methoxy-3-pyridylamino}-4-pyrimidinylamino)-1,2-dihydro-2-quinolinone] here?
A: The IC50 was at most 500 nM.

Q: For `COc1cc(Nc2nccc(Nc3cc4cccc(F)c4[nH]c3=O)n2)cnc1N1CCNC(C(F)(F)F)C1` (stereo not shown) [Compound 239, 8-fluoro-3-(2-{5-methoxy-6-[3-(trifluoromethyl)-1-piperazinyl]-3-pyridylamino}-4-pyrimidinylamino)-1,2-dihydro-2-quinolinone], which IC50 is on record?
A: Its IC50 is at most 500 nM.

Q: How did the IC50 turn out when `COc1cc(Nc2nccc(Nc3cc4cccc(F)c4[nH]c3=O)n2)cnc1N1CCS(=N)(=O)CC1` [Compound 240, 4-{5-[4-(8-fluoro-2-oxo-1,2-dihydro-3-quinolylamino)-2-pyrimidinylamino]-3-methoxy-2-pyridyl}-1-imino-1λ^6,4-thiazinan-1-one] was run?
A: Its IC50 is over 10000 nM.

Q: With `COc1cc(Nc2nccc(Nc3cc4cccc(F)c4[nH]c3=O)n2)cnc1N1CCOCC1` [Compound 241, 8-fluoro-3-[2-(5-methoxy-6-morpholino-3-pyridylamino)-4-pyrimidinylamino]-1,2-dihydro-2-quinolinone] as the molecule, how does the IC50 read?
A: Its IC50 is at most 500 nM.

Q: With `COc1cc(Nc2ncc(F)c(Nc3cc4cccc(F)c4[nH]c3=O)n2)ccc1O[C@H]1C[C@@H](N(C)C)C1` [Compound 242, 8-fluoro-3-(5-fluoro-2-{3-methoxy-4-[(1s,3s)-3-(dimethylamino)cyclobutoxy]phenyl-amino}-4-pyrimidinylamino)-1,2-dihydro-2-quinolinone] as the molecule, how does the IC50 read?
A: The IC50 was 2000 to 10000 nM.

Q: `CN(C)CC1Cc2ccc(Nc3nccc(Nc4cc5cccc(F)c5[nH]c4=O)n3)cc2O1` (stereo not shown) [Compound 243, 3-(2-{2-[(dimethylamino)methyl]-2,3-dihydro-1-benzofuran-6-ylamino}-4-pyrimidinylamino)-8-fluoro-1,2-dihydro-2-quinolinone] was tested. Which IC50 did it give?
A: Its IC50 is at most 500 nM.

Q: With `COc1cc(Nc2nccc(Nc3cc4ccc(F)cc4[nH]c3=O)n2)cnc1O[C@H]1C[C@@H](N(C)C)C1` [Compound 244, 7-fluoro-3-(2-{5-methoxy-6-[(1s,3s)-3-(dimethylamino)cyclobutoxy]-3-pyridylamino}-4-pyrimidinylamino)-1,2-dihydro-2-quinolinone] as the molecule, how does the IC50 read?
A: The IC50 was at most 500 nM.

Q: `CN(C)CC1COc2cc(Nc3nccc(Nc4cc5cc(Cl)ccc5[nH]c4=O)n3)ccc2O1` (stereo not shown) [Compound 245, 6-chloro-3-(2-{2-[(dimethylamino)methyl]-2,3-dihydro-1,4-benzodioxin-6-ylamino}-4-pyrimidinylamino)-1,2-dihydro-2-quinolinone] was tested. Which IC50 did it give?
A: Its IC50 is at most 500 nM.

Q: `COc1cc(Nc2nccc(Nc3cc4cccc(F)c4[nH]c3=O)n2)cnc1O[C@H]1C[C@@H](N(C)C)C1` [Compound 246, 8-fluoro-3-(2-{5-methoxy-6-[(1s,3s)-3-(dimethylamino)cyclobutoxy]-3-pyridylamino}-4-pyrimidinylamino)-1,2-dihydro-2-quinolinone] was tested. Which IC50 did it give?
A: The IC50 was at most 500 nM.

Q: For `CN(C)[C@H]1C[C@H](Oc2ccc(Nc3nccc(Nc4cc5ccccc5[nH]c4=O)n3)cc2)C1` [Compound 248, 3-(2-{p-[(1r,3r)-3-(dimethylamino)cyclobutoxy]phenylamino}-4-pyrimidinyl-amino)-2(1H)-quinolinone], which IC50 is on record?
A: Its IC50 is at most 500 nM.

Q: `COc1cc(Nc2nccc(Nc3cc4ccccc4[nH]c3=O)n2)ccc1O[C@H]1C[C@H](N(C)C)C1` [Compound 249, 3-(2-{3-methoxy-4-[(1r,3r)-3-(dimethylamino)cyclobutoxy]phenyl-amino}-4-pyrimidinylamino)-2(1H)-quinolinone] was tested. Which IC50 did it give?
A: Its IC50 is at most 500 nM.

Q: For `COc1cc(Nc2nccc(Nc3cc4ccccc4[nH]c3=O)n2)ccc1OCCCN1CCCCC1` [Compound 250, 3-{2-[3-methoxy-4-(3-piperidinopropoxy)phenylamino]-4-pyrimidinylamino}-2(1H)-quinolinone], which IC50 is on record?
A: The IC50 was at most 500 nM.

Q: `O=c1[nH]c2ccccc2cc1Nc1ccnc(Nc2ccc(OCCCN3CCOCC3)cc2)n1` [Compound 251, 3-{2-[p-(3-morpholinopropoxy)phenylamino]-4-pyrimidinylamino}-2(1H)-quinolinone] was tested. Which IC50 did it give?
A: The IC50 was at most 500 nM.

Q: With `COc1cc(Nc2nc(N)cc(Nc3cnc4cc(F)c(F)cc4c3)n2)cnc1O[C@H]1C[C@@H](N(C)C)C1` [Compound 252, 6-amino-4-(6,7-difluoro-3-quinolylamino)-2-{5-methoxy-6-[(1s,3s)-3-(dimethylamino)cyclobutoxy]-3-pyridylamino}pyrimidine] as the molecule, how does the IC50 read?
A: Its IC50 is 2000 to 10000 nM.

Q: How did the IC50 turn out when `COc1cc(Nc2nccc(Nc3cnc4cc(F)c(F)cc4c3)n2)cnc1O[C@@H]1C[C@H](N(C)C)C1(C)C` [Compound 254, 2-{6-[(1R,3S)-3-(dimethylamino)-2,2-dimethylcyclobutoxy]-5-methoxy-3-pyridylamino}-4-(6,7-difluoro-3-quinolylamino)pyrimidine] was run?
A: The IC50 was at most 500 nM.

Q: For `COc1cc(Nc2ncc(F)c(Nc3cc4ccccc4nc3C(N)=O)n2)cnc1O[C@H]1C[C@@H](N(C)C)C1` [Compound 255, 3-(5-fluoro-2-{5-methoxy-6-[(1s,3s)-3-(dimethylamino)cyclobutoxy]-3-pyridylamino}-4-pyrimidinylamino)-2-quinolinecarboxamide], which IC50 is on record?
A: Its IC50 is at most 500 nM.

Q: For `COc1cc(Nc2nccc(Nc3cc4c(nc3C(N)=O)CCCC4)n2)ccc1O[C@H]1C[C@@H](N(C)C)C1` [Compound 256, 3-(2-{3-methoxy-4-[(1s,3s)-3-(dimethylamino)cyclobutoxy]phenylamino}-4-pyrimidinylamino)-5,6,7,8-tetrahydro-2-quinolinecarboxamide], which IC50 is on record?
A: The IC50 was at most 500 nM.

Q: With `COc1cc(Nc2nccc(Nc3cnc4ccc(Cl)cc4c3)n2)cnc1OC1CCNCC1(F)F` (stereo not shown) [Compound 257, 4-(6-chloro-3-quinolylamino)-2-[6-(3,3-difluoro-4-piperidyloxy)-5-methoxy-3-pyridylamino]pyrimidine] as the molecule, how does the IC50 read?
A: The IC50 was at most 500 nM.

Q: With `COc1cc(Nc2nccc(Nc3cnc4ccc(Cl)cc4c3)n2)cnc1O[C@@H]1C[C@H](N(C)C)C1(C)C` [Compound 258, 2-{6-[(1R,3S)-3-(dimethylamino)-2,2-dimethylcyclobutoxy]-5-methoxy-3-pyridylamino}-4-(6-chloro-3-quinolylamino)pyrimidine] as the molecule, how does the IC50 read?
A: The IC50 was at most 500 nM.

Q: `COc1cc(Nc2nccc(Nc3cnc4c(c3)OC(CN(C)C)CO4)n2)ccc1O[C@H]1C[C@@H](N(C)C)C1` (stereo partly shown) [Compound 259, 4-{2-[(dimethylamino)methyl]-2,3-dihydro-1,4-dioxa-5-aza-7-naphthylamino}-2-{3-methoxy-4-[(1s,3s)-3-(dimethylamino)cyclobutoxy]phenylamino}pyrimidine] was tested. Which IC50 did it give?
A: The IC50 was at most 500 nM.

Q: For `CN(C)[C@H]1C[C@@H](Oc2ccc(Nc3nccc(Nc4cnc5c(c4)OCCO5)n3)cc2)C1` [Compound 260, 4-(2,3-dihydro-1,4-dioxa-5-aza-7-naphthylamino)-2-{p-[(1s,3s)-3-(dimethylamino)cyclobutoxy]phenylamino}pyrimidine], which IC50 is on record?
A: The IC50 was at most 500 nM.

Q: How did the IC50 turn out when `COc1cc(Nc2nccc(Nc3cc4cccc(F)c4nc3O)n2)cnc1OC1CCNCC1` [Compound 261, 8-fluoro-3-{2-[5-methoxy-6-(4-piperidyloxy)-3-pyridylamino]-4-pyrimidinylamino}-2-quinolinol] was run?
A: The IC50 was at most 500 nM.

Q: `COc1cc(Nc2cc(Nc3cnc4ccccc4n3)ccn2)ccc1O[C@H]1C[C@@H](N(C)C)C1` [Compound 262, 2-{3-methoxy-4-[(1s,3s)-3-(dimethylamino)cyclobutoxy]phenylamino}-4-(2-quinoxalinylamino)pyridine] was tested. Which IC50 did it give?
A: Its IC50 is at most 500 nM.

Q: With `COc1cc(Nc2nccc(Nc3cnc4cc(F)c(F)cc4c3)n2)cnc1OC1CCNCC1(F)F` (stereo not shown) [Compound 263, 2-[6-(3,3-difluoro-4-piperidyloxy)-5-methoxy-3-pyridylamino]-4-(6,7-difluoro-3-quinolylamino)pyrimidine] as the molecule, how does the IC50 read?
A: The IC50 was at most 500 nM.

Q: How did the IC50 turn out when `COc1cc(Nc2nccc(Nc3cnc4ccccc4c3)c2F)ccc1O[C@H]1C[C@@H](N(C)C)C1` [Compound 264, 3-fluoro-2-{3-methoxy-4-[(1s,3s)-3-(dimethylamino)cyclobutoxy]phenylamino}-4-(3-quinolylamino)pyridine] was run?
A: The IC50 was over 10000 nM.

Q: Which IC50 does the source give for `COc1cc(Nc2cc(Nc3cnc4ccccc4c3)ccn2)ccc1O[C@H]1C[C@@H](N(C)C)C1` [Compound 265, 2-{3-methoxy-4-[(1s,3s)-3-(dimethylamino)cyclobutoxy]phenylamino}-4-(3-quinolylamino)pyridine] here?
A: Its IC50 is 2000 to 10000 nM.
